Values after ≈ are worked out from the molar mass of the structure shown.
Experiments:
Format in all cases: functional
Salmonella enterica [1] = assay: Antibacterial activity against acrEF-deficient Salmonella enterica NKS176 by CLSI method
Salmonella enterica [2] = assay: Antibacterial activity against acrB-deficient Salmonella enterica NKS291 harboring hns gene by CLSI method
Salmonella enterica [3] = assay: Antibacterial activity against Salmonella enterica ATCC 14028 by CLSI method
Salmonella enterica [4] = assay: Antibacterial activity against tolC-deficient Salmonella enterica NKS174 by CLSI method
Salmonella enterica [5] = assay: Antibacterial activity against acrB-deficient Salmonella enterica NKS422 harboring acrEF gene by CLSI method
Salmonella enterica [6] = assay: Antibacterial activity against acrB-deficient Salmonella enterica NKS175 by CLSI method
Salmonella enterica [7] = assay: Antibacterial activity against acrB-deficient Salmonella enterica NKS416 harboring acrEF, hns gene by CLSI method
Salmonella enterica [8] = assay: Antibacterial activity against tolC-deficient Salmonella enterica NKS419 harboring hns gene by CLSI method

SMILES | MIC (Salmonella enterica [1]) | MIC (Salmonella enterica [2]) | MIC (Salmonella enterica [3]) | MIC (Salmonella enterica [4]) | MIC (Salmonella enterica [5]) | MIC (Salmonella enterica [6]) | MIC (Salmonella enterica [7]) | MIC (Salmonella enterica [8])
Cc1onc(-c2ccccc2)c1C(=O)N[C@@H]1C(=O)N2[C@@H]1SC(C)(C)[C@@H]2C(=O)O [OXACILLIN] | 512 µg/mL (≈ 1280 µM) | 16 µg/mL (≈ 39.9 µM) | 512 µg/mL (≈ 1280 µM) | 0.5 µg/mL (≈ 1.25 µM) | 1 µg/mL (≈ 2.49 µM) | 2 µg/mL (≈ 4.98 µM) | 1 µg/mL (≈ 2.49 µM) | 0.5 µg/mL (≈ 1.25 µM)
CN(C)c1ccc2nc3ccc(N(C)C)cc3[s+]c2c1.[Cl-] [METHYLENE BLUE ANHYDROUS] | > 512 µg/mL | 512 µg/mL | > 512 µg/mL | 16 µg/mL | 16 µg/mL | 16 µg/mL | 16 µg/mL | 16 µg/mL
Cn1nnnc1SCC1=C(C(=O)O)N2C(=O)[C@@H](NC(=O)[C@H](O)c3ccccc3)[C@H]2SC1 [CEFAMANDOLE] | 0.5 µg/mL (≈ 1.08 µM) | 0.25 µg/mL (≈ 0.541 µM) | 1 µg/mL (≈ 2.16 µM) | 0.063 µg/mL (≈ 0.136 µM) | 0.063 µg/mL (≈ 0.136 µM) | 0.063 µg/mL (≈ 0.136 µM) | 0.063 µg/mL (≈ 0.136 µM) | 0.063 µg/mL (≈ 0.136 µM)
CC/N=c1\cc2oc3cc(NCC)c(C)cc3c(-c3ccccc3C(=O)OCC)c-2cc1C.Cl [RHODAMINE 6G HYDROCHLORIDE] | > 512 µg/mL | 32 µg/mL | > 512 µg/mL | 8 µg/mL | 8 µg/mL | 8 µg/mL | 8 µg/mL | 8 µg/mL
Cc1onc(-c2ccccc2Cl)c1C(=O)N[C@@H]1C(=O)N2[C@@H]1SC(C)(C)[C@@H]2C(=O)O [CLOXACILLIN] | 512 µg/mL (≈ 1170 µM) | 128 µg/mL (≈ 294 µM) | 512 µg/mL (≈ 1170 µM) | 0.5 µg/mL (≈ 1.15 µM) | 4 µg/mL (≈ 9.18 µM) | 4 µg/mL (≈ 9.18 µM) | 4 µg/mL (≈ 9.18 µM) | 0.5 µg/mL (≈ 1.15 µM)
CCOc1ccc2ccccc2c1C(=O)N[C@@H]1C(=O)N2[C@@H]1SC(C)(C)[C@@H]2C(=O)O [NAFCILLIN] | > 512 µg/mL | 64 µg/mL (≈ 154 µM) | > 512 µg/mL | 1 µg/mL (≈ 2.41 µM) | 4 µg/mL (≈ 9.65 µM) | 8 µg/mL (≈ 19.3 µM) | 4 µg/mL (≈ 9.65 µM) | 1 µg/mL (≈ 2.41 µM)

— ChEMBL document CHEMBL1649561, “H-NS modulates multidrug resistance of Salmonella enterica serovar Typhimurium by repressing multidrug efflux genes acrEF” (2009)
